Measured values published in the NIST ThermoML archive (doi:10.1021/je034102r).

Assay: molar heat capacity at constant pressure
Conditions: 101.33 kPa, Liquid, heat bridge-scanning calorimeter

CCCCn1cc[n+](C)c1.F[P-](F)(F)(F)(F)F [1-butyl-3-methylimidazolium hexafluorophosphate]
Conditions	molar heat capacity at constant pressure [J/K/mol]
444.19 K	486.24
444.32 K	485.95
444.46 K	486.52
444.76 K	485.95
444.9 K	485.95
445.03 K	485.95
445.17 K	486.24
445.3 K	486.8
445.44 K	486.52
445.58 K	487.37
445.71 K	487.37
445.85 K	486.8
445.99 K	487.09
446.12 K	486.52
446.42 K	487.09
446.55 K	487.09
446.69 K	487.09
446.83 K	487.37
446.96 K	487.94
447.1 K	487.66
447.23 K	487.66
447.37 K	487.37
447.51 K	487.09
447.81 K	489.08
447.94 K	489.65
448.08 K	489.36
448.22 K	488.51
448.35 K	488.23
448.49 K	487.94
448.62 K	487.94
448.76 K	488.23
448.9 K	487.94
449.03 K	487.66
449.17 K	487.94
449.46 K	487.94
449.6 K	487.94
449.74 K	488.79
449.89 K	489.08
450.02 K	489.36
450.16 K	489.08
450.3 K	488.51
450.43 K	488.51
450.57 K	488.23
450.87 K	488.51
451 K	489.08
451.14 K	489.08
451.28 K	488.79
451.41 K	488.51
